Experimental data reported in patent US10450297B2, “Sulfonyl amide derivatives for the treatment of abnormal cell growth” (Pfizer, Inc., priority 2007, dated 2019).

Molecular target: FAK kinase (catalytic construct FAK(410-689)) (Homo sapiens (Human), UniProt Q05397)
Experiment: FAKcd kinase ELISA (inhibition of poly-glu-tyr phosphorylation by FAK(410-689))
Assay type: biochemical
Details: 50 μM final ATP

FAK kinase (catalytic construct FAK(410-689)), sequence (Q05397 410-689): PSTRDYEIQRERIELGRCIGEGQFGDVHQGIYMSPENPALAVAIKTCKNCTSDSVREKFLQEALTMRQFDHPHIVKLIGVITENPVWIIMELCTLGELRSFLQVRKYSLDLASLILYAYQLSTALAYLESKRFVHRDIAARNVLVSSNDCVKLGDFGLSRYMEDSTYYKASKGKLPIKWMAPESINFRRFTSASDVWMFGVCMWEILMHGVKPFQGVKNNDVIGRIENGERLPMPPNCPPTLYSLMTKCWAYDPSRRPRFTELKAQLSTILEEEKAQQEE

SMILES	IC50 [pM]
CCCC1(NC(=O)c2cccc(Nc3ncc(C(F)(F)F)c(NCc4cccnc4N(C)S(C)(=O)=O)n3)c2)CC1 [Compound 209, 3-({4-[({2-[methyl(methylsulfonyl)amino]pyridin-3-yl}methyl)amino]-5-(trifluoromethyl)pyrimidin-2-yl}amino)-N-(1-propylcyclopropyl)benzamide]	3680
C[C@@H](CO)NC(=O)c1cccc(Nc2ncc(C(F)(F)F)c(NCc3cccnc3N(C)S(C)(=O)=O)n2)c1 [Compound 211, N-[(1S)-2-hydroxy-1-methylethyl]-3-({4-[({2-[methyl(methylsulfonyl)amino]pyridin-3-yl}methyl)amino]-5-(trifluoromelhyl)pyrimidin-2-yl}amino)benzamide]	1060
CN(c1ncccc1CNc1nc(Nc2cccc(C(=O)N3CCNC(=O)C3)c2)ncc1C(F)(F)F)S(C)(=O)=O [Compound 213, N-methyl-N-[3-({[2-({3-[(3-oxopiperazin-1-yl)carbonyl]phenyl}amino)-5-(trifluoromethyl)pyrimidin-4-yl]amino}methyl)pyridin-2-yl]methanesulfonamide]	2880
CN(c1ncccc1CNc1nc(Nc2cccc(CN)c2)ncc1C(F)(F)F)S(C)(=O)=O [Compound 214, N-[3-({[2-{[3-(aminomethyl)phenyl]amino}-5-(trifluoromethyl)pyrimidin-4-yl]amino}methyl)pyridin-2-yl]-N-methylmethane-sulfonamide]	700
CC(=O)NCC(=O)NCc1ccc(Nc2ncc(C(F)(F)F)c(NCc3cccnc3N(C)S(C)(=O)=O)n2)cc1 [Compound 215, N~2~-acetyl-N-[4-({4-[({2-[methyl(methylsulfonyl)amino]pyridin-3-yl}methyl)amino]-5-(trifluoromethyl)pyrimidin-2-yl}amino)benzyl]glycinamide]	600
CN(c1ncccc1CNc1nc(Nc2ccc(CNC(N)=O)cc2)ncc1C(F)(F)F)S(C)(=O)=O [Compound 216, N-{3-[({2-[(4-{[(aminocarbonyl)amino]-methyl}phenyl)amino]-5-(trifluoromethyl)pyrimidin-4-yl}amino)methyl]pyridin-2-yl}-N-methylmethane-sulfonamide]	600
CN(c1ncccc1CNc1nc(Nc2ccc(CC(=O)NC3CC3)cc2)ncc1C(F)(F)F)S(C)(=O)=O [Compound 217, N-cyclopropyl-2-[4-({4-[({2~ [methyl(methylsulfonyl)amino]pyridin-3-yl}methyl)amino]-5-(trifluoromethyl)pyrimidin-2-yl}amino)phenyl]acetamide]	600
CC(=O)NCc1cccc(Nc2ncc(C(F)(F)F)c(NCc3cccnc3N(C)S(C)(=O)=O)n2)c1 [Compound 218, N-[3-({4-[({2-[methyl(methylsulfonyl)amino]pyridin-3-yl}methyl)amino]-5-(trifluoromethyl)pyrimidin-2-yl}amino)benzyl]acetamide]	600
CN(c1ncccc1CNc1nc(Nc2ccc(C(=O)OC(C)(C)C)cc2)ncc1C(F)(F)F)S(C)(=O)=O [Compound 219, tert-butyl 4-({4-[({2-[methyl(methylsulfonyl)amino]pyridin-3-yl}methyl)amino]-5-(trifluoromethyl)pyrimidin-2-yl}amino)benzoate]	600
Cc1ccc(C#N)cc1Nc1ncc(C(F)(F)F)c(NCc2cccnc2N(C)S(C)(=O)=O)n1 [Compound 220, N-{3-[({2-[(5-cyano-2-methylphenyl)amino]-5-(trifluoromethyl)pyrimidin-4-yl}amino)methyl]pyridin-2-yl}-N-methylmethane-sulfonamide]	600
Cc1cc(Nc2ncc(C(F)(F)F)c(NCc3cccnc3N(C)S(C)(=O)=O)n2)ccn1 [Compound 221, N-methyl-N-{3-[({2-[(2-methylpyridin-4-yl)amino]-5-(trifluoromethyl)pyrimidin-4-yl}amino)methyl]pyridin-2-yl}methanesulfonamide]	188000
CN(c1ncccc1CNc1nc(Nc2cccc(CNC(N)=O)c2)ncc1C(F)(F)F)S(C)(=O)=O [Compound 222, N-{3-[({2-[(3-{[(aminocarbonyl)amino]-methyl}phenyl)amino]-5-(trifluoromethyl)pyrimidin-4-yl}amino)methyl]pyridin-2-yl}-N-methylrnethanesulfonamide]	600
CC(=O)NCC(=O)NCc1cccc(Nc2ncc(C(F)(F)F)c(NCc3cccnc3N(C)S(C)(=O)=O)n2)c1 [Compound 223, N-2-acetyl-N-[3-({4-[({2-[methyl(methylsulfonyl)amino]pyridin-3-yl}methyl)amino]-5-(trifluoromethyl)pyrimidin-2-yl}amino)benzyl]glycinamide]	600
CN(C)C(=O)c1ccc(Nc2ncc(C(F)(F)F)c(NCc3ccccc3N(C)S(C)(=O)=O)n2)cc1 [Compound 224, N,N-dimethyl-4-{[4-({2-[methyl(methylsulfonyl)amino]benzyl}amino)-5-(trifluoromethyl)pyrimidin-2-yl]amino}benzamide]	600
CN(C)C(=O)c1ccc(Nc2ncc(C(F)(F)F)c(NCc3ccccc3NS(C)(=O)=O)n2)cc1 [Compound 225, N,N-dimethyl-4-{[4-({2-[(methylsuifonyl)amino]benzyl}amino)-5-(trifluoromethyl)pyrimidin-2-yl]amino}benzamide]	980
Cc1ccc(CNc2nc(Nc3ccc(C(=O)N(C)C)cc3)ncc2C(F)(F)F)c(NS(C)(=O)=O)c1 [Compound 226, N,N-dimethyl-4-{[4-({4-methyl-2-[(methylsulfonyl)amino]benzyl}amino)-5-(trifluoromethyl)pyrimidin-2-yl]amino}benzamide]	2920
CN(C)C(=O)c1ccc(Nc2ncc(C(F)(F)F)c(NCc3cccc(N(C)S(C)(=O)=O)c3)n2)cc1 [Compound 228, N, N-dimethyl-4-{[4-({3-[methyl(methylsulfonyl)amino]benzyl}amino)-5-(trifluoromethyl)pyrimidin-2-yl]amino}benzamide]	2190
CN(C)C(=O)c1ccc(Nc2ncc(C(F)(F)F)c(NCc3cccnc3N(C)S(C)(=O)=O)n2)cc1 [Compound 230, N,N-dimethyl-4-({4-[({2-[methyl(methylsulfonyl)amino]pyridin-3-yl}methyl)amino]-5-(trifluoromethyl)pyrimidin-2-yl}amino)benzamide]	2380
Cc1ccc(CNc2nc(Nc3ccc(C(=O)N(C)C)cc3)ncc2C(F)(F)F)c(N(C)S(C)(=O)=O)n1 [Compound 231, N,N-dimethyl-4-({4-[({6-methyl-2-[methyl(methylsulfonyl)amino]pyridin-3-yl}methyl)amino]-5-(trifluoromethyl)pyrimidin-2-yl}amino)benzamide]	600
CN(c1ncccc1CNc1nc(Nc2ccc(C(=O)N3C[C@@H](F)[C@H](F)C3)cc2)ncc1C(F)(F)F)S(C)(=O)=O [Compound 232, N-{3-[({2-[(4-{[(3R,4R)-3,4-difluoropyrrolidin-1-yl]carbonyl}phenyl)amino]-5-(trifluoromethyl)pyrimidin-4-yl}amino)methyl]pyridin-2-yl}-N-methylmethane-sulfonamide]	2620
CN(C)CCCNC(=O)c1ccc(Nc2ncc(C(F)(F)F)c(NCc3cccnc3N(C)S(C)(=O)=O)n2)cc1 [Compound 233, N-[3-(dimethylamino)propyl]-4-({4-[({2-[methyl(methylsulfonyl)amino]pyridin-3-yl}methyl)amino]-5-(trifluoromethyl)pyrimidin-2-yl}amino)benzamide]	1330
CN(CCO)C(=O)c1ccc(Nc2ncc(C(F)(F)F)c(NCc3cccnc3N(C)S(C)(=O)=O)n2)cc1 [Compound 234, N-(2-hydroxyethyl)-N-methyl-4-({4-{({2-[methyl(methylsulfonyl)amino]pyridin-3-yl}methyl)amino]-5-(trifluoromethyl)pyrimidin-2-yl}amino)benzamide]	2320
CN(c1ncccc1CNc1nc(Nc2ccc(C(=O)N3CC[C@H](F)C3)cc2)ncc1C(F)(F)F)S(C)(=O)=O [Compound 236, N-{3-[({2-[(4-{[(3S)-3-fluoropyrrolidin-1-yl]carbonyl}phenyl)amino]-5-(trifluoromethyl)pyrimidin-4-yl}amino)methyl]pyridin-2-yl}-N-methylmethane-sulfonamide]	1410
CN(c1ncccc1CNc1nc(Nc2ccc(C(=O)N3CCCC3)cc2)ncc1C(F)(F)F)S(C)(=O)=O [Compound 237, N-methyl-N-[3-({[2-{[4-(pyrrolidin-1-ylcarbonyl)phenyl]amino}-5-(trifluoromethyl)pyrimidin-4-yl]amino}methyl)pyridin-2-yl]methanesulfonamide]	2050
CN(c1ncccc1CNc1nc(Nc2ccc(C(=O)NC[C@H]3CCCO3)cc2)ncc1C(F)(F)F)S(C)(=O)=O [Compound 238, 4-({4-[({2-[methyl(methylsulfonyl)amino]pyridin-3-yl}methyl)amino]-5-(trifluoromethyl)pyrimidin-2-yl}amino)-N-[(2R)-tetrahydrofuran-2-ylmethyl]benzamide]	1250
CN(c1ncccc1CNc1nc(Nc2ccc(C(=O)N3CCC(O)CC3)cc2)ncc1C(F)(F)F)S(C)(=O)=O [Compound 239, N-[3-({[2-({4-[(4-hydroxypiperidin-1-yl)carbonyl]phenyl}amino)-5-(trifluoromethyl)pyrimidin-4-yl]amino}methyl)pyridin-2-yl]-N-methylmethane-sulfonamide]	600
CN(c1ncccc1CNc1nc(Nc2ccc(C(=O)NC3CCC3)cc2)ncc1C(F)(F)F)S(C)(=O)=O [Compound 240, N-cyclobutyl-4-({4-[({2-[methyl(methylsulfonyl)amino]pyridin-3-yl}methyl)amino]-5-(trifluoromethyl)pyrimidin-2-yl}amino)benzamide]	690
CC(C)C(CO)NC(=O)c1ccc(Nc2ncc(C(F)(F)F)c(NCc3cccnc3N(C)S(C)(=O)=O)n2)cc1 (stereo not shown) [Compound 241, N-[1-(hydroxymethyl)-2-methylpropyl]-4-({4-[{{2-[methyl(methylsulfonyl)amino]pyridin-3-yl}methyl)amino]-5-(trifluoromethyl)pyrimidin-2-yl}amino)benzamide]	600
